From patent publication US9676997B2, “Compositions and methods for stabilizing luminogenic substrates” (Promega Corporation, priority 2014, dated 2017)
Each block holds one molecule with its values, some of them ahead of it.

How the values were obtained:
[1] = Stability of 1.25 mM coelenterazine-h in 50% ethanol and 50% propylene glycol with or without 225 mM ATT, HPLC and Arrhenius plots; format: physicochemical
Protocol: (§1) The stability of coelenterazine-h in the presence and absence of ATT was measured over time at different temperatures. Specifically, 1.25 mM coelenterazine-h was present in a solution of 50% ethanol and 50% propylene glycol (i.e., the solution without ATT) or a solution of 50% ethanol and 50% propylene glycol with 225 mM ATT (i.e., the solution with ATT). These two solutions were incubated at −20° C., room temperature (RT), 40° C., or 60° C. and analyzed at for 0 days, 1 day, 3 days, 7 days, 15 days, and 30 days.
(§2) Following incubation, high performance liquid chromatography (HPLC) was utilized to identify the components of the respective solutions at each time point. Specifically, an Agilent 1100 HPLC instrument was used and equipped with a quaternary pump, thermostatted autosampler and column compartment, and a G1311B diode-array detector. The column used was a Synergi-MAX-RP (Phenomenex, Torrance, Calif.) 100 AÅ 50×4.6 2.5 μm. The run on the HPLC was a gradient run with 0.1% TFA in water and acetonitrile. Absorbance was measured at 262 nanometers (nm). Standards of coelenterazine-h and its known degradants were run to confirm both the retention time and absorbance trace. 5 μl of each solution was injected and the retention time of coelenterazine-h was 4.7 minutes at room temperature.
(§3) The results of the HPLC analysis are shown below in Tables 4 and 5 and FIGS. 2A and 2B, in which the values are reported as relative peak area percentage at 262 nm (i.e., the lamba max of the substrate). […] In each of FIGS. 2A and 2B, diamond is 1.25 mM coelenterazine-h incubated over time with or without 225 mM ATT, respectively, at −20° C., triangle is 1.25 mM coelenterazine-h incubated over time with or without 225 mM ATT, respectively, at room temperature (RT), star is 1.25 mM coelenterazine-h incubated over time with or without 225 mM ATT, respectively, at 40° C., and cross is 1.25 mM coelenterazine-h incubated over time with or without 225 mM ATT, respectively, at 60° C.
From the HPLC analysis, the half-life of coelenterazine-h in the presence of ATT at 40° C. and 60° C. was calculated to be 20 days and 5 days, respectively, while the half-life of coelenterazine-h in the absence of ATT at 20° C., 40° C. and 60° C. was calculated to be 24 days, 7.5 days and 2 days, respectively (see Table 6 below).
Additionally, Arrhenius plots were generated for coelenterazine-h in the presence and absence of ATT to calculate the half-life of coelenterazine-h at various temperatures. The Arrhenius equation is as follows: […]
In FIG. 9, the slope was −8131.2, the intercept was 22.6157, and R^2 was 0.9994.
In FIG. 10, the slope was −7310.53, the intercept was 21.4386, and R^2 was 0.9964.

[2] = Stability of 1.25 mM coelenterazine-h-h in 50% ethanol and 50% propylene glycol with or without 225 mM ATT, HPLC and Arrhenius plots; format: physicochemical
Protocol: as §1, with “coelenterazine-h-h” for “coelenterazine-h”, “at” for “at for”
as §2, with “coelenterazine-h-h” for “coelenterazine-h”, “coelenterazine-h-h” for “coelenterazine-h was 4.7 minutes”, “temperature was 5.5 minutes.” for “temperature.”
as §3, with “Tables 7” for “Tables 4”, “and 8” for “and 5”, “FIGS. 3A” for “FIGS. 2A”, “and 3B,” for “and 2B,”, “mM coelenterazine-h-h” for “mM coelenterazine-h”
From the HPLC analysis, the half-life of coelenterazine-h-h in the presence of ATT at 60° C. was calculated to be 10 days while the half-life of coelenterazine-h-h in the absence of ATT at 40° C. and 60° C. was calculated to be 27 days and 8 days, respectively (see Table 9 below).
Additionally, Arrhenius plots were generated for coelenterazine-h-h in the presence and absence of ATT to calculate the half-life of coelenterazine-h-h at various temperatures. The Arrhenius equation is as follows: […]
In FIG. 11, the slope was −10740.9, the intercept was 30.0575, and R^2 was 0.9967.
In FIG. 12, the […], and R^2 was 0.9648.

[3] = decomposition of coelenterazine-h
[4] = solution in 50% ethanol and 50% propylene glycol, 40° C., read-out: T1/2 Calculated from Arrhenius (converted)
[5] = solution of 50% ethanol and 50% propylene glycol, 40° C., read-out: T1/2 Estimated from graph (converted)
[6] = solution of 50% ethanol and 50% propylene glycol, 60° C., read-out: T1/2 Estimated from graph (converted)
[7] = decomposition of coelenterazine-h-h

- relative peak area percentage at 262 nm ([1]; 40° C., 0 days): 95.5%
- relative peak area percentage at 262 nm ([1]; 40° C., 1 day): 84.3%
- relative peak area percentage at 262 nm ([1]; 40° C., 3 days): 71.5%
- relative peak area percentage at 262 nm ([1]; 40° C., 7 days): 54.2%
- relative peak area percentage at 262 nm ([1]; 40° C., 15 days): 26.7%
- relative peak area percentage at 262 nm ([1]; 40° C., 30 days): 1.6%
- relative peak area percentage at 262 nm ([1]; 60° C., 0 days): 95.5%
- relative peak area percentage at 262 nm ([1]; 60° C., 1 day): 63.6%
- relative peak area percentage at 262 nm ([1]; 60° C., 3 days): 32.3%
- relative peak area percentage at 262 nm ([1]; 60° C., 7 days): 1.2%
- relative peak area percentage at 262 nm ([1]; RT, 0 days): 95.5%
- relative peak area percentage at 262 nm ([1]; RT, 1 day): 92.9%
- relative peak area percentage at 262 nm ([1]; RT, 3 days): 88.1%
- relative peak area percentage at 262 nm ([1]; RT, 7 days): 80.7%
- relative peak area percentage at 262 nm ([1]; RT, 15 days): 66.7%
- relative peak area percentage at 262 nm ([1]; RT, 30 days): 36.6%
- half-life at 1.25 mM [1, 4]: 4.7 days
- half-life at 1.25 mM ([1]; solution of 50% ethanol and 50% propylene glycol, 20° C., read-out: T1/2 Calculated from Arrhenius (converted)): 23.2 days
- half-life at 1.25 mM ([1]; solution of 50% ethanol and 50% propylene glycol, 20° C., read-out: T1/2 Estimated from graph (converted)): 24 days
- half-life at 1.25 mM [1, 5]: 7.5 days
- half-life at 1.25 mM ([1]; solution of 50% ethanol and 50% propylene glycol, 60° C., read-out: T1/2 Calculated from Arrhenius (converted)): 1.2 days
- half-life at 1.25 mM [1, 6]: 2 days
- half-life at 1.25 mM ([1]; solution of 50% ethanol and 50% propylene glycol, −20° C., read-out: T1/2 Calculated from Arrhenius (converted)): 1210 days
- relative peak area percentage at 262 nm ([1]; −20° C., 0 days): 95.5%
- relative peak area percentage at 262 nm ([1]; −20° C., 1 day): 95.4%
- relative peak area percentage at 262 nm ([1]; −20° C., 3 days): 95.0%
- relative peak area percentage at 262 nm ([1]; −20° C., 7 days): 95.0%
- relative peak area percentage at 262 nm ([1]; −20° C., 15 days): 94.6%
- relative peak area percentage at 262 nm ([1]; −20° C., 30 days): 88.8%
Structure (SMILES): O=c1c(Cc2ccccc2)nc2c(Cc3ccccc3)[nH]c(-c3ccc(O)cc3)cn1-2 [Coelenterazine-h (15-957-39), coelenterazine-h]
- Arrhenius plot intercept [1, 3]: 21.4386
- Arrhenius plot slope [1, 3]: −7310.53

- relative peak area percentage at 262 nm ([2]; 40° C., 0 days): 98.7%
- relative peak area percentage at 262 nm ([2]; 40° C., 1 day): 98.0%
- relative peak area percentage at 262 nm ([2]; 40° C., 3 days): 95.1%
- relative peak area percentage at 262 nm ([2]; 40° C., 7 days): 89.1%
- relative peak area percentage at 262 nm ([2]; 40° C., 15 days): 74.9%
- relative peak area percentage at 262 nm ([2]; 40° C., 30 days): 46.0%
- relative peak area percentage at 262 nm ([2]; 60° C., 0 days): 98.7%
- relative peak area percentage at 262 nm ([2]; 60° C., 1 day): 94.3%
- relative peak area percentage at 262 nm ([2]; 60° C., 3 days): 80.0%
- relative peak area percentage at 262 nm ([2]; 60° C., 7 days): 59.1%
- relative peak area percentage at 262 nm ([2]; 60° C., 15 days): 0.2%
- relative peak area percentage at 262 nm ([2]; RT, 0 days): 98.7%
- relative peak area percentage at 262 nm ([2]; RT, 1 day): 98.2%
- relative peak area percentage at 262 nm ([2]; RT, 3 days): 97.5%
- relative peak area percentage at 262 nm ([2]; RT, 7 days): 94.4%
- relative peak area percentage at 262 nm ([2]; RT, 15 days): 86.6%
- relative peak area percentage at 262 nm ([2]; RT, 30 days): 85.7%
- half-life at 1.25 mM ([2]; solution in 50% ethanol and 50% propylene glycol, 20° C., read-out: T1/2 Calculated from Arrhenius (converted)): 172 days
- half-life at 1.25 mM [2, 4]: 16.9 days
- half-life at 1.25 mM ([2]; solution in 50% ethanol and 50% propylene glycol, 60° C., read-out: T1/2 Calculated from Arrhenius (converted)): 2.2 days
- half-life at 1.25 mM [2, 5]: 27 days
- half-life at 1.25 mM [2, 6]: 8 days
- relative peak area percentage at 262 nm ([2]; −20° C., 0 days): 98.7%
- relative peak area percentage at 262 nm ([2]; −20° C., 1 day): 98.6%
- relative peak area percentage at 262 nm ([2]; −20° C., 3 days): 98.2%
- relative peak area percentage at 262 nm ([2]; −20° C., 7 days): 98.4%
- relative peak area percentage at 262 nm ([2]; −20° C., 15 days): 97.9%
- relative peak area percentage at 262 nm ([2]; −20° C., 30 days): 98.5%
Structure (SMILES): O=c1c(Cc2ccccc2)nc2c(Cc3ccccc3)[nH]c(-c3ccccc3)cn1-2 [Coelenterazine-h-h (1193-25-1), coelenterazine-h-h]
- Arrhenius plot intercept [2, 7]: 30.8352
- Arrhenius plot slope [2, 7]: −10650.1
